Laboratory results from PubChem BioAssay (NCI).
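Exposure lasted 48 hours, with cells grown in 96-well plates and compounds tested at five concentrations. GI50 = concentration required for 50% inhibition of growth. TGI is the concentration that stops growth completely.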

What was measured:
P388 leukemia = assay: NCI tumour cell line growth inhibition, 48 h
SN12K1 renal = assay: NCI tumour cell line growth inhibition, 48 h

Work on C[CH2][Ge]1([CH2]C)[CH2]CC2(CCN(CCCN(C)C)C2)C[CH2]1 yielded a GI50 (P388 leukemia) of 1340 nM, a TGI (P388 leukemia) of 2700 nM and a GI50 (SN12K1 renal) of 1970 nM. It also gave a TGI (SN12K1 renal) of 4380 nM.
O=C(NC(c1ccccc1)C(O)C(=O)OCc1ccc2c(c1)C(=O)c1ccccc1C2=O)c1ccccc1 (stereo not drawn) showed a TGI (P388 leukemia) of over 100000 nM and a TGI (SN12K1 renal) of 3270 nM.
COc1cccc2c1C(=N)c1c(O)c3c(c(O)c1C2=O)C[C@@](O)(C(C)=O)C[C@@H]3OC1CC(N)C(O)C(C)O1 (stereo partly drawn) was tested, and the GI50 (P388 leukemia) was 42.5 nM and the TGI (SN12K1 renal) was 3050 nM.
